Laboratory results taken from the NIST ThermoML archive (doi:10.1016/j.jct.2016.03.036).
Where “and” joins values, the source holds several entries; their conditions need not be identical. Equal entries are not always repeated.

Experiment: xn = mol fraction of the nth substance listed
Conditions: Gas, Spherical resonator

[Ar] [argon] + O=C=O
Conditions | speed of sound
274.99 K, 4022.9 kPa, x2 = 0.501 | 263.92 m/s and 263.91 m/s
274.99 K, 4023.2 kPa, x2 = 0.501 | 263.86 m/s
274.99 K, 6072.9 kPa, x2 = 0.501 | 257.99 m/s and 257.96 m/s
274.99 K, 6073.3 kPa, x2 = 0.501 | 258.01 m/s
275 K, 2006.3 kPa, x2 = 0.501 | 270.61 m/s and 270.59 m/s
275 K, 2006.4 kPa, x2 = 0.501 | 270.44 m/s
275 K, 8215.3 kPa, x2 = 0.501 | 254.18 m/s and 254.17 m/s
275 K, 8216.3 kPa, x2 = 0.501 | 253.76 m/s
276.09 K, 501.14 kPa, x2 = 0.7498 | 264.91 m/s
276.09 K, 1998.9 kPa, x2 = 0.7498 | 255.17 m/s and 255.16 m/s
276.09 K, 1999 kPa, x2 = 0.7498 | 255.07 m/s
276.09 K, 4003.2 kPa, x2 = 0.7498 | 240.29 m/s
276.09 K, 4003.3 kPa, x2 = 0.7498 | 240.28 m/s
276.09 K, 4003.6 kPa, x2 = 0.7498 | 240.29 m/s
276.09 K, 4995.2 kPa, x2 = 0.7498 | 231.83 m/s and 231.82 m/s
276.09 K, 4995.7 kPa, x2 = 0.7498 | 232.3 m/s
276.09 K, 5295.4 kPa, x2 = 0.7498 | 229.02 m/s and 229.01 m/s
276.09 K, 5296 kPa, x2 = 0.7498 | 229.56 m/s
276.09 K, 5399.3 kPa, x2 = 0.7498 | 228 m/s
276.09 K, 5399.8 kPa, x2 = 0.7498 | 228.57 m/s
276.09 K, 5502.4 kPa, x2 = 0.7498 | 226.98 m/s
276.09 K, 5503 kPa, x2 = 0.7498 | 227.57 m/s
290.01 K, 485.29 kPa, x2 = 0.7498 | 271.44 m/s
290.01 K, 1978.9 kPa, x2 = 0.7498 | 263.38 m/s and 263.41 m/s
290.01 K, 1979 kPa, x2 = 0.7498 | 263.3 m/s
290.01 K, 4023.1 kPa, x2 = 0.7498 | 251.71 m/s and 251.65 m/s
290.01 K, 4023.4 kPa, x2 = 0.7498 | 251.64 m/s
290.01 K, 6011.9 kPa, x2 = 0.7498 | 239.66 m/s
290.01 K, 6012.1 kPa, x2 = 0.7498 | 239.67 m/s
290.01 K, 6012.7 kPa, x2 = 0.7498 | 240.25 m/s
290.01 K, 8057 kPa, x2 = 0.7498 | 227.35 m/s
290.01 K, 8057.4 kPa, x2 = 0.7498 | 227.74 m/s
290.02 K, 8057.1 kPa, x2 = 0.7498 | 227.32 m/s
299.85 K, 8170.1 kPa, x2 = 0.501 | 275.03 m/s
299.85 K, 8170.2 kPa, x2 = 0.501 | 275.04 m/s
299.85 K, 8170.7 kPa, x2 = 0.501 | 275.13 m/s
299.94 K, 1986.8 kPa, x2 = 0.501 | 283.88 m/s and 283.89 m/s
299.94 K, 1987 kPa, x2 = 0.501 | 283.79 m/s
299.94 K, 4020.8 kPa, x2 = 0.501 | 279.77 m/s
299.95 K, 494.36 kPa, x2 = 0.501 | 287.27 m/s
299.95 K, 4020.5 kPa, x2 = 0.501 | 279.84 m/s and 279.82 m/s
299.95 K, 6007.5 kPa, x2 = 0.501 | 276.82 m/s
299.95 K, 6007.9 kPa, x2 = 0.501 | 276.82 m/s
299.95 K, 7657.9 kPa, x2 = 0.501 | 275.37 m/s
299.95 K, 7658 kPa, x2 = 0.501 | 275.38 m/s
299.96 K, 7658.9 kPa, x2 = 0.501 | 275.44 m/s
310 K, 5999.6 kPa, x2 = 0.7498 | 258 m/s
310.01 K, 488.28 kPa, x2 = 0.7498 | 280.3 m/s
310.01 K, 1980.9 kPa, x2 = 0.7498 | 274.11 m/s and 274.12 m/s
310.01 K, 1981 kPa, x2 = 0.7498 | 274.01 m/s
310.01 K, 4023.9 kPa, x2 = 0.7498 | 265.68 m/s and 265.67 m/s
310.01 K, 4024.2 kPa, x2 = 0.7498 | 265.61 m/s
310.01 K, 5999.7 kPa, x2 = 0.7498 | 257.99 m/s
310.01 K, 6000.2 kPa, x2 = 0.7498 | 258.01 m/s
310.01 K, 8062.5 kPa, x2 = 0.7498 | 251.41 m/s
310.01 K, 8062.7 kPa, x2 = 0.7498 | 251.51 m/s
310.01 K, 8063.3 kPa, x2 = 0.7498 | 251.52 m/s
